This test concerns the target T1, CCR3 receptor (Homo sapiens, UniProt P51677).
T1 construct: expressed in transfected cells; host or cells: K562 cells
T1 sequence (P51677 1-355): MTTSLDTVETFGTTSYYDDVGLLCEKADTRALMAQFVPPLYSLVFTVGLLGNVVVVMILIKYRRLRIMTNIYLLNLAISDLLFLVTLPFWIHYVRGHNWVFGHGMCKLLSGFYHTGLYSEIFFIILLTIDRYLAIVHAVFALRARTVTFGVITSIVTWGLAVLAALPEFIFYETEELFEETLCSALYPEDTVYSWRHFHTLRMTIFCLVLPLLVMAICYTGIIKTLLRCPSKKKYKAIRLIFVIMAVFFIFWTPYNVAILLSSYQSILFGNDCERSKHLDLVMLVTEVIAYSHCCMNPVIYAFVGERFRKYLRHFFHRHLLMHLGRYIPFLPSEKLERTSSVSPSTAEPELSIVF
The experiment in a line: Inhibition of eotaxin-induced intracellular calcium concentration increase in CCR3-expressing cells. The class given is cell-based. The note with it: CCR3-expressing K562 cells, human eotaxin 0.5 μg/ml, read-out: inhibition of eotaxin-induced intracellular calcium concentration increase (Suppression); for inhibition at 10 µM: 10 μM concentration of compound; for inhibition at 2 µM: 2 μM concentration of compound. How it is done: Measurement of Inhibiting Power of Test Compounds Against Eotaxin-Induced Intracellular Calcium Concentration Increase in CCR3-Expressing Cells
K562 cells stably expressing CCR3 receptor were used in the following method for measurement of the inhibiting power of compounds of the invention against intracellular calcium concentration increase.
The CCR3-expressing K562 cells were suspended in HBSS solution (Hanks' Balanced Salt Solution, Gibco BRL) containing 10 mM HEPES (N-[2-hydroxyethyl]piperazine-N′-[2-ethanesulfonic acid], Gibco BRL), and then 1 mM Fura-2 acetoxymethyl ester (product of Dojin Kagaku) was added to a final concentration of 1 μM and the mixture was incubated at 37° C. for 30 minutes. After rinsing the cells, they were added simultaneously with the test compound into a 96-well white plate (Falcon), the agonist was added after 5 minutes, the mixture was excited at 340 nm and 380 nm, and the 340/380 ratio was monitored to measure the intracellular calcium concentration. Human eotaxin (product of Genzyme Techne) (0.5 μg/ml) was used as an agonist. The inhibiting power of the test compound was determined by measuring the intracellular calcium concentration upon treatment of the CCR3-expressing K562 cells with the test compound 5 minutes before eotaxin stimulation, and calculating the suppression by the following formula. Suppression (%)={1−(A−B)/(C−B)}×100 (A: Intracellular calcium concentration upon stimulation with eotaxin after treatment with test compound, B: Intracellular calcium concentration without stimulation, C: Intracellular calcium concentration upon stimulation with eotaxin without treatment with test compound)

Some results are limits rather than exact numbers.

As to `Nc1cccc2[nH]c(NCC3CCN(Cc4ccc(Cl)c(Cl)c4)CC3)nc12` [1-3-61, N2-[1-(3,4-dichlorobenzyl)-piperidin-4-ylmethyl]-1H-benzimidazole-2,4-diamine], the inhibition at 10 µM was no less than 80%. For `Clc1ccc(CN2CCC(CNc3nc4ccccc4[nH]3)CC2)cc1Cl` [1-1-1, (1H-benzoimidazol-2-yl)-[1-(3,4-dichloro-benzyl)-piperidin-4-ylmethyl]-amine], the inhibition at 10 µM is no less than 80%. Take `O=C(O)c1ccc2[nH]c(NCC3CCN(CCCc4ccccc4)CC3)nc2c1` [1-5-20, 2-{[1-(3-phenyl-propyl)-piperidin-4-ylmethyl]-amino}-1H-benzimidazole-5-carboxylic acid]: the inhibition at 10 µM lay within 50 to 80%.

For the compound `CCNC(=O)Nc1cccc2[nH]c(NCC3CCN(Cc4ccc(Cl)c(Cl)c4)CC3)nc12` [1-3-59, 1-(2-{[1-(3,4-dichloro-benzyl)-piperidin-4-ylmethyl]-amino}-1H-benzimidazol-4-yl)-3-ethyl-urea], the inhibition at 10 µM was no less than 80%. The same measure, in the same setting: the value for `c1ccc(CCCCN2CCC(CNc3nc4ccccc4[nH]3)CC2)cc1` [1-2-170, (1H-benzimidazol-2-yl)-[1-(4-phenyl-butyl)-piperidin-4-ylmethyl]-amine] was 50 to 80%; that for `Cn1c(CN2CCC(CNc3nc4ccccc4[nH]3)CC2)cc2ccccc21` [1-2-1, (1H-benzimidazol-2-yl)-[1-(1-methyl-1H-indol-2-ylmethyl)-piperidin-4-ylmethyl]-amine] was no less than 80%. Consider `CC(=O)NCCC(=O)Nc1cccc2[nH]c(NCC3CCN(Cc4cccc5ccccc45)CC3)nc12` [1-3-1, 3-acetylamino-N-{2-[(1-naphthalen-1-ylmethyl-piperidin-4-ylmethyl)-amino]-1H-benzimidazol-4-yl}-propionamide], for which the inhibition at 2 µM was no less than 80%. Still for that read-out and setting: as for `COC(=O)c1cccc2[nH]c(NCC3CCN(Cc4cc(Cl)cc(Cl)c4O)CC3)nc12` [1-4-1, 2-{[1-(3,5-dichloro-2-hydroxy-benzyl)-piperidin-4-ylmethyl]-amino}-1H-benzimidazole-4-carboxylic acid methyl ester], the figure is 20 to 50%. Consider `COCCNC(=O)c1cccc2[nH]c(NCC3CCN(Cc4cc(Cl)ccc4O)CC3)nc12` [1-4-10, 2-{[1-(5-chloro-2-hydroxy-benzyl)-piperidin-4-ylmethyl]-amino}-1H-benzimidazole-4-carboxylic acid (2-methoxy-ethyl)-amide], for which the inhibition at 2 µM is no less than 80%.

Source of the values: patent US7517875B2, “Piperidine derivatives having CCR3 antagonism” (Teijin Limited, priority 2002, dated 2009).
